Results as given in patent US4977184A, “Bicyclic peroxides compositions for and treatment of malaria therewith” (Hoffmann-La Roche Inc., priority 1987, dated 1990).

Tested on: not listed separately
Test: Toxicity, single oral administration to mice
Conditions: mouse, in vivo, p.o., no toxic symptoms at the dosage indicated, read-out: Toxicity, Dosage (no toxic symptoms observed at this amount)
Excerpt: The results which have been obtained with representative members of the class of substance defined by formula I in the previously described experiment are compiled in the following Table. Moreover, the Table contains data concerning the toxicity of some of these compounds.

SMILES	NOAEL
CCCCCCCCCCC[C@]1(C)OO[C@@H]2C[C@H]1CC(=O)[C@@H]2C [(CH2)10CH3 (1R, 4S, 5S, 8R), (1R,4S,5S,8R)-4,8-dimethyl-4-undecyl-2,3-dioxabicyclo[3.3.1]nonan-7-one]	3000 mg/kg
CCCCCCCCCCC[C@@]1(C)OO[C@@H]2C[C@H]1CC(=O)[C@@H]2C [(CH2)10CH3 (1R, 4R, 5S, 8R), (1R,4R,5S,8R)-4,8-dimethyl-4-undecyl-2,3-dioxabicyclo[3.3.1]nonan-7-one]	3000 mg/kg
C[C@H]1C(=O)C[C@@H]2C[C@H]1OO[C@]2(C)/C=C\c1cc(C(F)(F)F)nc2cc(C(F)(F)F)ccc12 [drawing 9]	6000 mg/kg

Tested on: Plasmodium berghey
Test: Blood schizontocidal activity in infected mice (ED50, s.c., four-fold administration)
Type: in vivo, Plasmodium berghey; male albino mice
Conditions: mice infected with Plasmodium berghey, first 3 h after infection and on three subsequent days, smears D+4
Protocol: They have a pronounced blood schizontocidal activity. The activity of the substances in accordance with the invention can be determined, for example, in the animal experiment described hereinafter: Male albino mice weighing 18-20 g are used as the experimental animals. They are kept in climatized rooms at 22°-23° C. in groups of 5 animals per cage. They receive ad libitum a diet feed with low PABA content and drinking water. On the first day of the experiment (DO) the experimental animals are infected with Plasmodium berghey by intravenously injecting into each of the experimental animals 0.2 ml of heparinized blood of infected donor mice. The donor blood is diluted so that it contains 10^7 parasitized erythrocytes per 0.2 ml. In untreated control animals the parasitemia normally reaches 70-80% on the fourth day after the infection (D+4) and the experimental animals die between days +5 to +8. The substances to be tested are dissolved or suspended in distilled water or in a mixture of Tween 80, alcohol (96%) and water. Generally, in each case 0.5 ml of this solution or suspension is administered subcutaneously to groups of 5 experimental animals. The treatment is effected for the first time 3 hours after the infection as well as on the three subsequent days. Suitable dilutions of the test compounds are used for the titration of the activity. Per experiment 10 animals are treated in the same manner with the solution or suspension medium. 24 hours after the last treatment (D+4) blood smears with blood from tail veins are prepared from all animals and stained with giemsa. The average erythrocyte infection rate (parasitemia in %) in the control group as well as in the groups which have been treated with the compounds to be tested is determined by counting under the microscope. The difference in the average value of the infection rate between control group (100%) and the treated groups is calculated and expressed as the percentage reduction. The ED50 is determined mathematically from the results obtained. The ED50 in mg/kg is that dosage which, after four-fold administration, reduces to 50% the average erythrocyte infection rate in comparison to the control group. The results which have been obtained with representative members of the class of substance defined by formula I in the previously described experiment are compiled in the following Table. Moreover, the Table contains data concerning the toxicity of some of these compounds.

SMILES	Activity ED50 (dosage which, after four-fold administration, reduces to 50% the average erythrocyte infection rate versus control)
CCCCCCCC[C@]1(C)OO[C@@H]2C[C@H]1CC(=O)[C@@H]2C [(CH2)7CH3 (1R, 4S, 5S, 8R), (1R,4S,5S,8R)-4,8-dimethyl-4-octyl-2,3-dioxabicyclo[3.3.1]nonan-7-one]	5.2 mg/kg
CCCCCCCCCCC[C@]1(C)OO[C@H]2C[C@@H]1CC(=O)[C@H]2C [(CH2)10CH3 (1S, 4S, 5R, 8S), (1S,4S,5R,8S)-4,8-dimethyl-4-undecyl-2,3-dioxabicyclo[3.3.1]nonan-7-one]	5.9 mg/kg
CCCCCCCC/C=C/[C@@]1(C)OO[C@@H]2C[C@H]1CC(=O)[C@@H]2C [CHCH(CH2)7CH3 (1R, 4S, 5S, 8R), (1R,4S,5S,8R)-4-[(E)-1-decenyl]-4,8-dimethyl-2,3-dioxabicyclo[3.3.1]nonan-7-one]	4.5 mg/kg
CCCCCCCC/C=C/[C@]1(C)OO[C@@H]2C[C@H]1CC(=O)[C@@H]2C [CHCH(CH2)7CH3 (1R, 4R, 5S, 8R), (1R,4R,5S,8R)-4-[(E)-1-decenyl]-4.8-dimethyl-2,3-dioxabicyclo[3.3.1]nonan-7-one]	6.2 mg/kg
CCCCCCCCCCC[C@]1(C)OO[C@@H]2C[C@H]1CC(=O)[C@@H]2C [(CH2)10CH3 (1R, 4S, 5S, 8R), (1R,4S,5S,8R)-4,8-dimethyl-4-undecyl-2,3-dioxabicyclo[3.3.1]nonan-7-one]	3.4 mg/kg
CCCCCCCCC[C@]1(C)OO[C@@H]2C[C@H]1CC(=O)[C@@H]2C [(CH2)8CH3 (1R, 4S, 5S, 8R), (1R,4S,5S,8R)-4,8-dimethyl-4-nonyl-2,3-dioxabicyclo[3.3.1]nonan-7-one]	6.0 mg/kg
C[C@@H]1C(=O)C[C@H]2C[C@@H]1OO[C@@]2(C)/C=C\c1cc(C(F)(F)F)nc2cc(C(F)(F)F)ccc12 [drawing 9 (1S, 4R, 5R, 8S)]	5.4 mg/kg
CCCCCCCCCCC[C@@]1(C)OO[C@@H]2C[C@H]1CC(=O)[C@@H]2C [(CH2)10CH3 (1R, 4R, 5S, 8R), (1R,4R,5S,8R)-4,8-dimethyl-4-undecyl-2,3-dioxabicyclo[3.3.1]nonan-7-one]	5.2 mg/kg
C[C@H]1C(=O)C[C@@H]2C[C@H]1OO[C@]2(C)/C=C\c1cc(C(F)(F)F)nc2cc(C(F)(F)F)ccc12 [drawing 9 (1R, 4S, 5S, 8R)]	6.2 mg/kg
CCCCCCCCCC[C@@]1(C)OO[C@@H]2C[C@H]1CC(=O)[C@@H]2C [(CH2)9CH3 (1R, 4R, 5S, 8R), (1R,4R,5S,8R)-4-decyl-4,8-dimethyl-2,3-dioxabicyclo[3.3.1]nonan-7-one]	5.2 mg/kg
CCCCCCCCC[C@@]1(C)OO[C@@H]2C[C@H]1CC(=O)[C@@H]2C [(CH2)8CH3 (1R, 4R, 5S, 8R), (1R,4R,5S,8R)-4.8-dimethyl-4-nonyl-2,3-dioxabicyclo[3.3.1]nonan-7-one]	3.6 mg/kg
C[C@@H]1C(=O)C[C@H]2C[C@@H]1OO[C@@]2(C)/C=C\c1ccc(Cl)cc1Cl [drawing 10 (1S, 4R, 5R, 8S)]	4.6 mg/kg
CCCCCCCCCCC[C@@]1(C)OO[C@H]2C[C@@H]1CC(=O)[C@H]2C [(CH2)10CH3 (1S, 4R, 5R, 8S), (1S,4R,5R,8S)-4,8-dimethyl-4-undecyl-2,3-dioxabicyclo[3.3.1]nonan-7-one]	4.6 mg/kg
CCCCCCCC[C@@]1(C)OO[C@@H]2C[C@H]1CC(=O)[C@@H]2C [(CH2)7CH3 (1R, 4R, 5S, 8R), (1R,4R,5S,8R)-4,8-dimethyl-4-octyl-2,3-dioxabicyclo[3.3.1]nonan-7-one]	6.4 mg/kg
CCCCCCCCCC[C@]1(C)OO[C@@H]2C[C@H]1CC(=O)[C@@H]2C [(CH2)9CH3 (1R, 4S, 5S, 8R), (1R,4S,5S,8R)-4-decyl-4,8-dimethyl-2,3-dioxabicyclo[3.3.1]-nonan-7-one]	3.4 mg/kg
